What all share (type): in vivo
In assay [1] the test system is pigweed (Amaranthus retroflexus). Briefly: Test A preemergence. The settings on record: Amaranthus retroflexus, pre-emergence, 240 h, preemergence, read-out: Pigweed plant response rating; for pest or weed control at 125 g/ha: 125 g ai/ha; for pest or weed control at 500 g/ha: 500 g ai/ha.
The subject of assay [2] is Galium (catchweed bedstraw, Galium aparine). Briefly: Test A postemergence. The note with it: Galium, post-emergence, 240 h; for pest or weed control at 125 g/ha: 125 g ai/ha. In a few lines:
(§1)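 Seeds sprayed preemergence with a directed soil spray, or plants at 2 to 10 cm height and one- to two-leaf stage sprayed postemergence, with test chemicals in a non-phytotoxic solvent mixture containing surfactant, in loam soil–sand blend. Injury rated visually against untreated controls after about 10 d in greenhouse, 0 (no effect) to 100 (complete control).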

Assay [3] relates to Kochia (Kochia scoparia). Briefly: Test A postemergence. The settings on record: Bassia scoparia, post-emergence, 240 h; for pest or weed control at 125 g/ha: 125 g ai/ha. In a few lines:
as §1

For assay [4], the system named is barnyardgrass (Echinochloa crus-galli). Briefly: Test A postemergence. The note with it: Echinochloa crus-galli, post-emergence, 240 h; for pest or weed control at 125 g/ha: 125 g ai/ha. In a few lines:
as §1

The test system of assay [5] is blackgrass (Alopecurus myosuroides). Briefly: Test A postemergence. The note with it: Alopecurus myosuroides, post-emergence, 240 h; for pest or weed control at 125 g/ha: 125 g ai/ha. In outline: as §1
Assay [6] has as its system corn (Zea mays). The assay can be described thus: Test A postemergence. The note with it: Zea mays, post-emergence, 240 h. In outline:
as §1

Assay [7] relates to giant foxtail (Setaria faberii). Briefly: Test A postemergence. The note with it: Setaria faberi, post-emergence, 240 h; for pest or weed control at 125 g/ha: 125 g ai/ha. In a few lines:
as §1

The test system of assay [8] is pigweed (Amaranthus retroflexus). The assay can be described thus: Test A postemergence. The settings on record: Amaranthus retroflexus, post-emergence, 240 h; for pest or weed control at 125 g/ha: 125 g ai/ha. In a few lines: as §1
The test system of assay [9] is ragweed (common ragweed, Ambrosia elatior). Briefly: Test A postemergence. The note with it: Ambrosia artemisiifolia, post-emergence, 240 h; for pest or weed control at 125 g/ha: 125 g ai/ha. In outline:
as §1

Assay [10] concerns ryegrass, Italian (Italian ryegrass, Lolium multiflorum). Briefly: Test A postemergence. The note with it: Lolium multiflorum, post-emergence, 240 h; for pest or weed control at 125 g/ha: 125 g ai/ha. In outline: as §1
Assay [11] deals with wheat (Triticum aestivum). Briefly: Test A postemergence. The note with it: Triticum aestivum, post-emergence, 240 h; for plant injury at 125 g/ha: 125 g ai/ha. In outline:
as §1

Assay [12] relates to barnyardgrass (Echinochloa crus-galli). The assay can be described thus: Test B flooded paddy test. The note with it: Echinochloa crus-galli, 250 g ai/ha, Flood, read-out: Barnyardgrass plant response rating. In a few lines:
(§2)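 Plants at 2-leaf stage flooded to 3 cm above soil, with compounds applied directly to paddy water and that depth maintained. Plants kept in greenhouse 13–15 d. Visual rating versus controls on a 0 (no effect) to 100 (complete control) scale.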

Assay [13] concerns ducksalad (Heteranthera limosa). The assay can be described thus: Test B flooded paddy test. The settings on record: Heteranthera limosa, 250 g ai/ha, Flood, read-out: Ducksalad plant response rating. In outline: as §2
The subject of assay [14] is rice (Oryra sativa). The assay can be described thus: Test B flooded paddy test. The settings on record: Oryza sativa, 250 g ai/ha, Flood, read-out: Rice plant response rating. In a few lines:
as §2

The subject of assay [15] is sedge, umbrella (small-flower umbrella sedge, Cyperus difformis). The assay can be described thus: Test B flooded paddy test. The note with it: Cyperus difformis, 250 g ai/ha, Flood, read-out: Sedge, Umbrella plant response rating. In outline:
as §2

Setting [16] is: 0 to 100 scale where 0 is no effect and 100 is complete control.
Setting [17] is: scale of 0 to 100 where 0 is no effect and 100 is complete control.

Like-named read-outs stand apart in the source and are kept apart here.

Regarding `O=C1NC[C@H](c2csc(C(F)F)c2)[C@H]1C(=O)Nc1ccccc1F` [Compound 1118], the pest or weed control at 125 g/ha in assay [1] (0 to 100 scale where 0 is no effect and 100 is complete control, approx. 10 d) came to 0%; in [2] (postemergence, visual injury on 0 to 100 scale (0 no effect, 100 complete control), approx. 10 d, read-out: Galium plant response rating) it was 50%; in [3] (postemergence, visual injury on 0 to 100 scale (0 no effect, 100 complete control), approx. 10 d, read-out: Kochia plant response rating) it was 0%; in assay [4] (postemergence, visual injury on 0 to 100 scale (0 no effect, 100 complete control), approx. 10 d, read-out: Barnyardgrass plant response rating) it was 80%; in assay [5] (postemergence, visual injury on 0 to 100 scale (0 no effect, 100 complete control), approx. 10 d, read-out: Blackgrass plant response rating), 20%; in assay [7] (postemergence, visual injury on 0 to 100 scale (0 no effect, 100 complete control), approx. 10 d, read-out: Foxtail, Giant plant response rating), 0%. The pest or weed control at 125 g/ha in [8] (postemergence, visual injury on 0 to 100 scale (0 no effect, 100 complete control), approx. 10 d, read-out: Pigweed plant response rating) worked out at 0%; in assay [9] (postemergence, visual injury on 0 to 100 scale (0 no effect, 100 complete control), approx. 10 d, read-out: Ragweed plant response rating), 0%; in assay [10] (postemergence, visual injury on 0 to 100 scale (0 no effect, 100 complete control), approx. 10 d, read-out: Ryegrass, Italian plant response rating) it was 20%. Also, the pest or weed control at 500 g/ha was 0% in [1] (setting [16]); 60% in assay [2] (500 g ai/ha, postemergence, 0 to 100 scale, 0 is no effect, 100 is complete control, read-out: Galium plant response rating); 30% in [3] (500 g ai/ha, postemergence, 0 to 100 scale, 0 is no effect, 100 is complete control, read-out: Kochia plant response rating); 90% in assay [4] (500 g ai/ha, postemergence, 0 to 100 scale, 0 is no effect, 100 is complete control, read-out: Barnyardgrass plant response rating); 60% in assay [5] (500 g ai/ha, postemergence, 0 to 100 scale, 0 is no effect, 100 is complete control, read-out: Blackgrass plant response rating); 50% in assay [7] (500 g ai/ha, postemergence, 0 to 100 scale, 0 is no effect, 100 is complete control, read-out: Foxtail, Giant plant response rating). Also, the pest or weed control at 500 g/ha worked out at 20% in assay [8] (500 g ai/ha, postemergence, 0 to 100 scale, 0 is no effect, 100 is complete control, read-out: Pigweed plant response rating); 20% in [9] (500 g ai/ha, postemergence, 0 to 100 scale, 0 is no effect, 100 is complete control, read-out: Ragweed plant response rating); 50% in assay [10] (500 g ai/ha, postemergence, 0 to 100 scale, 0 is no effect, 100 is complete control, read-out: Ryegrass, Italian plant response rating). The plant injury at 125 g/ha in assay [6] (125 g ai/ha, postemergence, visual injury on 0 to 100 scale (0 no effect, 100 complete control), approx. 10 d, read-out: Corn plant response rating) is 0%; in [11] (postemergence, visual injury on 0 to 100 scale (0 no effect, 100 complete control), approx. 10 d, read-out: Wheat plant response rating), 20%. Moreover, the plant injury at 500 g/ha in assay [6] (500 g ai/ha, postemergence, 0 to 100 scale, 0 is no effect, 100 is complete control, read-out: Corn plant response rating) was found to be 20%; in [11] (500 g ai/ha, postemergence, 0 to 100 scale, 0 is no effect, 100 is complete control, read-out: Wheat plant response rating) it was 20%. For the same compound, the pest or weed control at 250 g/ha in [12] (setting [16]) was found to be 65%; in [13] (setting [16]), 100%; in assay [14] (setting [16]), 40%; in assay [15] (setting [16]), 0%.

As for `C=CCOc1cccc(C2CN(C)C(=O)C2C(=O)Nc2cccc(F)c2F)c1` (stereo not drawn) [Compound 933], the pest or weed control at 125 g/ha in [1] (setting [16]) was found to be 30%; in assay [2] (Postemergence, visual injury after approximately 10 d, 0 to 100 scale where 0 is no effect and 100 is complete control, read-out: Plant response rating, Galium), 50%; in assay [3] (Postemergence, visual injury after approximately 10 d, 0 to 100 scale where 0 is no effect and 100 is complete control, read-out: Plant response rating, Kochia) it was 50%; in assay [4] (Postemergence, visual injury after approximately 10 d, 0 to 100 scale where 0 is no effect and 100 is complete control, read-out: Plant response rating, Barnyardgrass), 90%; in assay [5] (Postemergence, visual injury after approximately 10 d, 0 to 100 scale where 0 is no effect and 100 is complete control, read-out: Plant response rating, Blackgrass), 20%; in assay [7] (Postemergence, visual injury after approximately 10 d, 0 to 100 scale where 0 is no effect and 100 is complete control, read-out: Plant response rating, Foxtail, Giant), 90%. Besides, the pest or weed control at 125 g/ha in assay [8] (Postemergence, visual injury after approximately 10 d, 0 to 100 scale where 0 is no effect and 100 is complete control, read-out: Plant response rating, Pigweed) is 0%; in assay [9] (Postemergence, visual injury after approximately 10 d, 0 to 100 scale where 0 is no effect and 100 is complete control, read-out: Plant response rating, Ragweed), 0%; in [10] (Postemergence, visual injury after approximately 10 d, 0 to 100 scale where 0 is no effect and 100 is complete control, read-out: Plant response rating, Ryegrass, Italian) it was 40%. For the same compound, the pest or weed control at 500 g/ha in [1] (visual injury rating about 10 d after treatment, 0 to 100 scale (0 no effect, 100 complete control)) worked out at 30%. Further, the Corn plant response rating (crop injury, 0 = no effect, 100 = complete kill) at 125 g/ha in assay [6] (125 g ai/ha, Postemergence, visual injury after approximately 10 d, 0 to 100 scale where 0 is no effect and 100 is complete control) was determined as 40%. Moreover, the plant injury at 125 g/ha in assay [11] (Postemergence, visual injury after approximately 10 d, 0 to 100 scale where 0 is no effect and 100 is complete control, read-out: Plant response rating, Wheat) came out at 20%. Besides, the pest or weed control at 250 g/ha in assay [12] (setting [17]) was determined as 60%; in assay [13] (setting [17]), 60%; in [14] (setting [17]), 0%; in assay [15] (setting [17]), 0%.

The record behind these values is patent US12077503B2, “Substituted cyclic amides and their use as herbicides” (FMC CORPORATION, priority 2015, dated 2024).
